Results from US9050315B2, “In vivo and ex vivo expansion of hematopoietic stem cells with a targeted combination of clinically tested, FDA approved drugs” (The Trustees of the University of Pennsylvania, priority 2010, dated 2015).
Entries after “also recorded” stand apart in the source; their conditions may differ.

Experiments:
LSK cells = conditions: cited from earlier work
c-Kit+ cells = experiment: Colony formation assay in methylcellulose with hematopoietic cytokines; type: cell-based, mice; conditions: c-Kit+ cells treated 3 days ex vivo, then methylcellulose 10-14 days
Description: The primary cultures are shown.
Methylcellulose culture: Sorted GFP^+ BM cells were plated in individual wells of 6-well plates (Corning) containing 550 μl 1.0% methylcellulose (Stem Cell Technologies) as previously described (Trowbridge, et al., 2006, Nature. 441:518-522). The methylcellulose was supplemented with 1% penicillin/streptomycin (Gibco; Invitrogen), 50 ng/ml SCF, 10 ng/ml IL-3, 10 ng/ml IL-6, and 3 U/ml erythropoietin. Colonies were incubated at 37° C. in humidified incubators at 5% CO2. Colony formation was scored by counting all colonies of greater than 30 viable cells after 10-14 days of culture.
To test whether progenitor cells are increased by lithium treatment, colony formation assays were performed. […] To confirm these studies, bone marrow cells were isolated from lithium treated mice and cultured in methylcellulose with hematopoietic cytokines.

Row | bone marrow morphology / architecture (LSK cells (HSCs/HPCs); treated versus control marrows) | SMILES | HSCs measured by long-term competitive repopulation assay (LSK cells; mice, Goessling et al. 2009) | overall marrow cellularity (LSK cells (HSCs/HPCs); mice treated 2 weeks, vs control) | number of LSK cells in bone marrow (LSK cells (HSCs/HPCs); mice treated 2 weeks, vs control (NaCl for lithium), FCM) | hematopoietic colony number (c-Kit+ cells) | increase in LSK cells (LSK cells; treated mice, Trowbridge et al. 2006)
1 | no observable change | O=C1Nc2cc(Br)ccc2/C1=C1/Nc2ccccc2/C1=N\O [6BIO, 6-bromo-indirubin 3′-oxime] | increases HSCs | increased marrow cellularity; also recorded: parallel increase | pronounced increase; also recorded: increased | marked increase; also recorded: increased | –
2 | – | COc1ccc(CNC(=O)Nc2ncc([N+](=O)[O-])s2)cc1 [AR-A014418] | – | – | – | marked increase; also recorded: increased | –
3 | – | Cc1c[nH]c(-c2cnc(NCCNc3ccc(C#N)cn3)nc2-c2ccc(Cl)cc2Cl)n1 [CHIR-911] | – | – | – | – | approximately 50%
